From patent publication US20100267561A1, “HERBICIDAL PYRIDAZINONE DERIVATIVES” (priority 2007, published 2010)

Key:
Format in all cases: in vivo
[1] = test system: umbrella sedge (Cyperus difformis); assay: Test B flooded paddy test plant response
Method in brief: (§1)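 Rice, umbrella sedge, ducksalad and barnyardgrass at 2-leaf stage; pots flooded to 3 cm, compounds applied into paddy water, depth held throughout. Greenhouse 13 to 15 days, then visual rating vs untreated controls on 0–100 scale (0 no effect, 100 complete control); dash means no test result.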

[2] = test system: barnyardgrass (Echinochloa crus-galli); assay: Test B flooded paddy test plant response
Method in brief: as §1

[3] = test system: ducksalad (Heteranthera limosa); assay: Test B flooded paddy test plant response
Method in brief: as §1

[4] = test system: rice (Oryza sativa); assay: Test B flooded paddy test plant response
Method in brief: as §1

[5] = test system: surinam grass (Brachiaria decumbens); assay: Test B pre-/postemergence plant response
Method in brief: (§2)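 Preemergence and postemergence (plants 2-18 cm, 1- to 4-leaf stage) applications used test chemicals in a non-phytotoxic solvent with surfactant. Plants were held in a greenhouse 13 to 15 days, then rated visually against controls on a 0-100 scale (0 no effect, 100 complete control).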

[6] = test system: downy bromegrass (Bromus tectorum); assay: Test B pre-/postemergence plant response
Method in brief: as §2

[7] = test system: goosegrass (Eleusine indica); assay: Test B pre-/postemergence plant response
Method in brief: as §2

[8] = test system: soybean (Glycine max); assay: Test B pre-/postemergence plant response
Method in brief: as §2

[9] = test system: wheat (Triticum aestivum); assay: Test B pre-/postemergence plant response
Method in brief: as §2

[10] = test system: giant foxtail (Setaria faberii); assay: Test B pre-/postemergence plant response
Method in brief: as §2

[11] = test system: morningglory (Ipomoea coccinea); assay: Test B pre-/postemergence plant response
Method in brief: as §2

[12] = test system: Russian thistle (Salsola iberica); assay: Test B pre-/postemergence plant response; conditions: Preemergence
Method in brief: as §2

[13] = test system: common (oilseed) sunflower (Helianthus annuus); assay: Test B pre-/postemergence plant response; conditions: Preemergence
Method in brief: as §2

[14] = test system: eastern black (E.B.) nightshade (Solanum ptycanthum); assay: Test B pre-/postemergence plant response; conditions: Preemergence
Method in brief: as §2

[15] = Flood (flooded paddy test), 62 g ai/ha, scale 0 to 100, 0 no effect, 100 complete control
[16] = Flood (flooded paddy test), 125 g ai/ha, scale 0 to 100, 0 no effect, 100 complete control
[17] = Flood (flooded paddy test), 250 g ai/ha, scale 0 to 100, 0 no effect, 100 complete control
[18] = Flood, 31 g ai/ha, scale 0 to 100
[19] = Postemergence, 31 g ai/ha, scale 0 to 100, 0 no effect, 100 complete control
[20] = Postemergence, 62 g ai/ha, scale 0 to 100
[21] = Postemergence, 125 g ai/ha, scale 0 to 100
[22] = Postemergence, 250 g ai/ha, scale 0 to 100
[23] = Preemergence, 31 g ai/ha, 0 to 100 scale, 0 no effect, 100 complete control
[24] = Preemergence, 62 g ai/ha, scale 0 to 100
[25] = Preemergence, 125 g ai/ha, scale 0 to 100
[26] = Preemergence, 250 g ai/ha, scale 0 to 100
[27] = 31 g ai/ha, 0 to 100 scale, 0 no effect, 100 complete control

**Q.** Which results are given for `Cc1nn(C)c(=O)c(-n2nc(-c3ccc(Cl)cc3)cc2C)c1O` [Compound 15]?
**A.** Plant response rating, Sedge, Umbrella [1, 15]: 50; Plant response rating, Sedge, Umbrella [1, 16]: 60; Plant response rating, Sedge, Umbrella [1, 17]: 70; Plant response rating, Sedge, Umbrella [1, 18]: 0; Plant response rating, Barnyardgrass [2, 15]: 15; Plant response rating, Barnyardgrass [2, 16]: 40; Plant response rating, Barnyardgrass [2, 17]: 60; Plant response rating, Barnyardgrass [2, 18]: 0; Plant response rating, Ducksalad [3, 15]: 0; Plant response rating, Ducksalad [3, 16]: 80; Plant response rating, Ducksalad [3, 17]: 100; Plant response rating, Ducksalad [3, 18]: 0; Plant response rating, Rice [4, 15]: 0; Plant response rating, Rice [4, 16]: 15; Plant response rating, Rice [4, 17]: 70; Plant response rating, Rice [4, 18]: 0; Plant response rating, Surinam Grass [5, 19]: 100; Plant response rating, Surinam Grass [5, 20]: 100; Plant response rating, Surinam Grass [5, 21]: 100; Plant response rating, Surinam Grass [5, 22]: 100; Plant response rating, Surinam Grass [5, 23]: 100; Plant response rating, Surinam Grass [5, 24]: 100; Plant response rating, Surinam Grass [5, 25]: 100; Plant response rating, Surinam Grass [5, 26]: 100; Plant response rating, Bromegrass, Downy [6, 19]: 10; Plant response rating, Bromegrass, Downy [6, 20]: 15; Plant response rating, Bromegrass, Downy [6, 21]: 45; Plant response rating, Bromegrass, Downy [6, 22]: 60; Plant response rating, Bromegrass, Downy [6, 23]: 50; Plant response rating, Bromegrass, Downy [6, 24]: 55; Plant response rating, Bromegrass, Downy [6, 25]: 90; Plant response rating, Bromegrass, Downy ([6]; Preemergence, 250 g ai/ha, scale 0 to 100 (0 no effect, 100 complete control)): 98; Plant response rating, Goosegrass [7, 19]: 45; Plant response rating, Goosegrass [7, 20]: 60; Plant response rating, Goosegrass [7, 21]: 90; Plant response rating, Goosegrass [7, 22]: 100; Plant response rating, Goosegrass [7, 23]: 0; Plant response rating, Goosegrass [7, 24]: 90; Plant response rating, Goosegrass [7, 25]: 90; Plant response rating, Goosegrass [7, 26]: 100; Plant response rating, Soybean [8, 19]: 0; Plant response rating, Soybean [8, 20]: 0; Plant response rating, Soybean [8, 21]: 0; Plant response rating, Soybean [8, 22]: 0; Plant response rating, Soybean [8, 23]: 0; Plant response rating, Soybean [8, 24]: 0; Plant response rating, Soybean [8, 26]: 30; Plant response rating, Wheat [9, 19]: 5; Plant response rating, Wheat [9, 20]: 60; Plant response rating, Wheat [9, 21]: 70; Plant response rating, Wheat [9, 22]: 85; Plant response rating, Wheat [9, 23]: 0; Plant response rating, Wheat [9, 24]: 60; Plant response rating, Wheat [9, 25]: 60; Plant response rating, Wheat [9, 26]: 80; Plant response rating, Foxtail, Giant [10, 19]: 95; Plant response rating, Foxtail, Giant [10, 20]: 100; Plant response rating, Foxtail, Giant [10, 21]: 100; Plant response rating, Foxtail, Giant [10, 22]: 100; Plant response rating, Foxtail, Giant [10, 23]: 90; Plant response rating, Foxtail, Giant [10, 24]: 100; Plant response rating, Foxtail, Giant [10, 25]: 100; Plant response rating, Foxtail, Giant [10, 26]: 100; Plant response rating, Morningglory [11, 19]: 0; Plant response rating, Morningglory [11, 20]: 0; Plant response rating, Morningglory [11, 21]: 0; Plant response rating, Morningglory [11, 22]: 0; Plant response rating, Morningglory [11, 23]: 0; Plant response rating, Morningglory [11, 25]: 0; Plant response rating, Russian Thistle [12, 27]: 0; Plant response rating, Russian Thistle ([12]; 250 g ai/ha, scale 0 to 100): 80; Plant response rating, Sunflower [13, 27]: 0; Plant response rating, Sunflower ([13]; 62 g ai/ha, scale 0 to 100): 0; Plant response rating, Sunflower ([13]; 250 g ai/ha, scale 0 to 100): 60; Plant response rating, Nightshade, E. B. [14, 27]: 0; Plant response rating, Nightshade, E. B. ([14]; 62 g ai/ha, scale 0 to 100): 0; Plant response rating, Nightshade, E. B. ([14]; 125 g ai/ha, scale 0 to 100): 0; Plant response rating, Nightshade, E. B. ([14]; 250 g ai/ha, scale 0 to 100): 0
